pEC50, pIC50: −log10 of the molar value.
What was measured:
[1] = target: Poly [ADP-ribose] polymerase 1 (Homo sapiens, UniProt P09874)
Description: Inhibition of human recombinant PARP1

PC-12 [2] = test: Cytoprotective activity in rat PC12 cells assessed as reduction in oxygen-glucose deprivation-induced LDH release at 3 uM; type: functional; design: scale not given: the % may be the effect or the level left
PC-12 [3] = test: Cytoprotective activity against oxygen-glucose deprivation-induced cell death in rat PC12 cells by MTT assay; type: functional, cell-based
PC-12 [4] = test: Cytoprotective activity against oxygen-glucose deprivation-induced apoptosis in rat PC12 assessed as late apoptotic cells at 3 uM by flow cytometry using FITC-conjugated annexin V and propidium iodide staining relative to control; type: functional
PC-12 [5] = test: Cytoprotective activity against oxygen-glucose deprivation-induced apoptosis in rat PC12 assessed as damaged cells at 3 uM by flow cytometry using FITC-conjugated annexin V and propidium iodide staining relative to control; type: functional
PC-12 [6] = test: Cytoprotective activity against oxygen-glucose deprivation-induced apoptosis in rat PC12 assessed as live cells at 3 uM by flow cytometry using FITC-conjugated annexin V and propidium iodide staining relative to control; type: functional
PC-12 [7] = test: Cytoprotective activity against oxygen-glucose deprivation-induced apoptosis in rat PC12 assessed as total apoptotic cells at 3 uM by flow cytometry using FITC-conjugated annexin V and propidium iodide staining relative to control; type: functional
PC-12 [8] = test: Cytoprotective activity against oxygen-glucose deprivation-induced apoptosis in rat PC12 assessed as early apoptotic cells at 3 uM by flow cytometry using FITC-conjugated annexin V and propidium iodide staining relative to control; type: functional
PC-12 [9] = test: Cytoprotective activity against H2O2-induced cell death in rat PC12 cells by MTT assay after 6 hrs; type: functional, cell-based; conditions: PC-12, 6 h

Chain of Poly [ADP-ribose] polymerase 1 (P09874 whole entry): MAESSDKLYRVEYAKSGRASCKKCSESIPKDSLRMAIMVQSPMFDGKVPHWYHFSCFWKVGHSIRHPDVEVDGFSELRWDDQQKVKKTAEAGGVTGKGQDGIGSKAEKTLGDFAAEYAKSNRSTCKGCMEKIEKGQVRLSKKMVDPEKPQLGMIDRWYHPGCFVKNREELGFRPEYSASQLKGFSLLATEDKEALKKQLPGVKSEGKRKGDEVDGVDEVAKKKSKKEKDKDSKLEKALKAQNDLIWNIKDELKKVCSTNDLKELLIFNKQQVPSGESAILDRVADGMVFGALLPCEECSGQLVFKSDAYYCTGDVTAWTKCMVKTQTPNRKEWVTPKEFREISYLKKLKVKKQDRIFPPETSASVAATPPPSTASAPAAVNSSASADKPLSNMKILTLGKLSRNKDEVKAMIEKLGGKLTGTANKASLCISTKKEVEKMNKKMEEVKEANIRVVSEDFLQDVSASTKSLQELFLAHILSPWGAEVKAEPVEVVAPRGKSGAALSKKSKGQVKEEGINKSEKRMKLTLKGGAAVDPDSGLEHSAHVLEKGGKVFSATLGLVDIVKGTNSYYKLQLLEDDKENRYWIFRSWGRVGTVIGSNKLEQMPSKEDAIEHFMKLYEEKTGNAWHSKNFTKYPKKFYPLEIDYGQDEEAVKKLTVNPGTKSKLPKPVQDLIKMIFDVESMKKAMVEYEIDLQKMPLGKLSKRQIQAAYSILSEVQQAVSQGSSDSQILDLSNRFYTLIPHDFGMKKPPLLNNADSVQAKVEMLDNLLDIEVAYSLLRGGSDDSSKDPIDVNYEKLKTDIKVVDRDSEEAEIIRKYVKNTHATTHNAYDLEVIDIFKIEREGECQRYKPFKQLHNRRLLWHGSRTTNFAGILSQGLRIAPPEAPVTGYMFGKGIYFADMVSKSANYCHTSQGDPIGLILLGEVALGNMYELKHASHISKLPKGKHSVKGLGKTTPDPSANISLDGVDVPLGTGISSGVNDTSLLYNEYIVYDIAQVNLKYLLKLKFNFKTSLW

Structure (SMILES) | pIC50 [1] | pEC50 (PC-12 [3]) | pEC50 (PC-12 [9]) | also measured
CCOC(=O)c1ccc(CCc2nc3cccc4c3n2CCNC4=O)cc1 | 7.01 | – | – | –
O=C(/C=C/c1ccccc1)Nc1nc(-c2ccccc2)cs1 | 6.65 | 6.25 | 6.89 | Activity (PC-12 [2]): 33.1%; Activity (PC-12 [4]): 3.7%; Activity (PC-12 [5]): 3.9%; Activity (PC-12 [6]): 84%; Activity (PC-12 [7]): 64.4%; Activity (PC-12 [8]): 8.4%
O=C(CCn1c2c(c(=O)[nH]c1=O)CSCC2)NCC(=O)c1ccc(-c2ccnnc2)cc1 | 7.60 | – | – | –
CCOc1ccc(-c2csc(/N=C/c3c[nH]c4ccccc34)n2)c(OCC)c1 | 6.62 | 6.44 | 6.49 | Activity (PC-12 [2]): 28.4%
CCOC(=O)CCC(=O)Nc1nc2c(s1)CCCC2 | 4.91 | 6.02 | < 5.52 | –
O=c1[nH]c(CCCN2CC=C(c3ccccc3)CC2)nc2c1CCC2 | 6.60 | – | – | –
CC1CCc2nc(CCCN3CC=C(c4ccccc4)CC3)[nH]c(=O)c2C1 (configuration not stated) | 6.56 | – | – | –
O=c1[nH]c2ccc(CCN3CC=C(c4ccccc4)CC3)cc2c2ccccc12 | 7.34 | – | – | –
O=c1[nH]c2ccc(CCCN3CC=C(c4ccccc4)CC3)cc2c2ccccc12 | 6.92 | – | – | –
Nc1ncnc2c1ncn2[C@@H]1O[C@H](COCNC(=O)CCC(=O)Nc2cccc3c2CNC3=O)[C@@H](O)[C@H]1O | 7.00 | – | – | –
Cc1sc(-c2ccccc2)nc1C(=O)Nc1cccc(Cc2n[nH]c(=O)c3ccccc23)c1 | 7.57 | – | – | –
O=c1[nH]c(CCCN2CC=C(c3ccccc3)CC2)nc2cccc(Cl)c12 | 6.17 | – | – | –
COc1cc(/C=C/C(=O)Nc2nc(-c3ccccc3)cs2)cc(OC)c1 | 5.34 | 6.28 | 5.95 | Activity (PC-12 [2]): 24%
CN(C)CCCOc1ccc(-c2nc3cccc4c3n2CCNC4=O)cc1 | 7.20 | – | – | –
O=C(Nc1nc(-c2ccccc2)cs1)c1ccncc1 | 6.12 | 6.72 | 5.81 | Activity (PC-12 [2]): 20.1%; Activity (PC-12 [4]): 11.6%; Activity (PC-12 [5]): 6%; Activity (PC-12 [6]): 73.8%; Activity (PC-12 [7]): 45.1%; Activity (PC-12 [8]): 8.6%
CCOC(=O)CCC(=O)Nc1nc(-c2ccccc2)cs1 | 6.62 | 6.84 | 6.27 | Activity (PC-12 [2]): 34.6%; Activity (PC-12 [4]): 5.9%; Activity (PC-12 [5]): 5%; Activity (PC-12 [6]): 80.6%; Activity (PC-12 [7]): 70.7%; Activity (PC-12 [8]): 8.5%
O=C1NCCn2c(CN3CCCCC3)cc3cccc1c32 | 6.96 | – | – | –
COc1cc(/C=C/C(=O)Nc2nc3c(s2)CCCC3)cc(OC)c1 | 5.03 | 5.98 | 5.68 | –

— ChEMBL document CHEMBL1143348, “Design, synthesis, and cytoprotective effect of 2-aminothiazole analogues as potent poly(ADP-ribose) polymerase-1 inhibitors” (J Med Chem, 2009)
